Patent US9187467B2, “2-phenyl benzothiazole linked imidazole compounds as potential anticancer agents and process for the preparation thereof” (Council of Scientific and Industrial Research, priority 2012, dated 2015)

What was measured:
[1] = test system: CCRF-CEM; test: SRB anticancer assay, leukemia; format: cell-based, human; details: 48 h
[2] = test system: HL-60 (TB); test: SRB anticancer assay, leukemia; format: cell-based, human; details: HL-60 (TB), 48 h; read-out: GI50
[3] = test system: K-562; test: SRB anticancer assay, leukemia; format: cell-based, human; details: K-562, 48 h
[4] = test system: MOLT-4; test: SRB anticancer assay, leukemia; format: cell-based, human; details: MOLT-4, 48 h
[5] = test system: SR; test: SRB anticancer assay, leukemia; format: cell-based, human; details: 48 h
[6] = test system: A549/ATCC; test: SRB anticancer assay, non-small lung; format: cell-based, human; details: 48 h
[7] = test system: EKVX; test: SRB anticancer assay, non-small lung; format: cell-based, human; details: 48 h
[8] = test system: NCI-H226; test: SRB anticancer assay, non-small lung; format: cell-based, human; details: NCI-H226, 48 h
[9] = test system: NCI-H23; test: SRB anticancer assay, non-small lung; format: cell-based, human; details: NCI-H23, 48 h
[10] = test system: NCI-H322M; test: SRB anticancer assay, non-small lung; format: cell-based, human; details: 48 h
[11] = test system: NCI-H460; test: SRB anticancer assay, non-small lung; format: cell-based, human; details: NCI-H460, 48 h
[12] = test system: NCI-H522; test: SRB anticancer assay, non-small lung; format: cell-based, human; details: NCI-H522, 48 h
[13] = test system: COLO 205; test: SRB anticancer assay, colon; format: cell-based, human; details: COLO 205, 48 h
[14] = test system: HCC-2998; test: SRB anticancer assay, colon; format: cell-based, human; details: HCC-2998, 48 h
[15] = test system: HCT-116; test: SRB anticancer assay, colon; format: cell-based, human; details: HCT-116, 48 h
[16] = test system: HCT-15; test: SRB anticancer assay, colon; format: cell-based, human; details: HCT-15, 48 h
[17] = test system: HT29; test: SRB anticancer assay, colon; format: cell-based, human; details: HT29, 48 h
[18] = test system: SF-295; test: SRB anticancer assay, CNS; format: cell-based, human; details: SF-295, 48 h
[19] = test system: SNB-75; test: SRB anticancer assay, CNS; format: cell-based, human; details: SNB-75, 48 h
[20] = test system: U251; test: SRB anticancer assay, CNS; format: cell-based, human; details: U251, 48 h
[21] = test system: IGROV1; test: SRB anticancer assay, ovarian; format: cell-based, human; details: IGROV1, 48 h
[22] = test system: OVCAR-4; test: SRB anticancer assay, ovarian; format: cell-based, human; details: OVCAR-4, 48 h
[23] = test system: A498; test: SRB anticancer assay, renal; format: cell-based, human; details: A498, 48 h
[24] = test system: ACHN; test: SRB anticancer assay, renal; format: cell-based, human; details: 48 h
[25] = test system: SN12C; test: SRB anticancer assay, renal; format: cell-based, human; details: 48 h
[26] = test system: TK-10; test: SRB anticancer assay, renal; format: cell-based, human; details: TK-10, 48 h
[27] = test system: UO-31; test: SRB anticancer assay, renal; format: cell-based, human; details: UO-31, 48 h
[28] = test system: RXF 393; test: SRB anticancer assay, renal; format: cell-based, human; details: RXF 393, 48 h
[29] = test system: PC-3; test: SRB anticancer assay, prostate; format: cell-based, human; details: PC-3, 48 h
[30] = test system: DU-145; test: SRB anticancer assay, prostate; format: cell-based, human; details: DU-145, 48 h
[31] = test system: MCF7; test: SRB anticancer assay, breast; format: cell-based, human; details: MCF7, 48 h
[32] = test system: MDA-MB-231/ATCC; test: SRB anticancer assay, breast; format: cell-based, human; details: MDA-MB-231/ATCC (row head MDA-MB-), 48 h; read-out: GI50
[33] = test system: HS 578T; test: SRB anticancer assay, breast; format: cell-based, human; details: 48 h
[34] = test system: BT-549; test: SRB anticancer assay, breast; format: cell-based, human; details: BT-549, 48 h
[35] = test system: LOX IMVI; test: SRB anticancer assay, melanoma; format: cell-based, human; details: 48 h
[36] = test system: M14; test: SRB anticancer assay, melanoma; format: cell-based, human; details: M14, 48 h
[37] = test system: MDA-MB-435; test: SRB anticancer assay, melanoma; format: cell-based, human; details: MDA-MB-435, 48 h
[38] = test system: SK-MEL-5; test: SRB anticancer assay, melanoma; format: cell-based, human; details: SK-MEL-5, 48 h
[39] = test system: UACC-257; test: SRB anticancer assay, melanoma; format: cell-based, human; details: UACC-257, 48 h
[40] = test system: UACC-62; test: SRB anticancer assay, melanoma; format: cell-based, human; details: UACC-62, 48 h
[41] = test system: microtubule network of MCF-7 cells; test: Effect on microtubule network; format: cell-based; details: 2 μM
Procedure: FIG. 2 represents effect of compound 7d, the effective compound on the microtubule network of MCF-7 cells untreated cells (Con), nocodazole (Noc) and 7d at 2 μM concentration. Microtubules and unassembled tubulin are shown in green and DNA was stained with nuclear dye DAPI (4,6-diamidino-2-phenylindole) is shown in blue colour.
Inhibition of tubulin is associated with G2/M cell cycle arrest by interrupting chromosome segregation and affecting mitotic spindle formation. […] It was considered of interest to understand the mechanism of anti-cancer activity of compound 7d with regard to interaction with microtubule system. MCF-7 breast cancer cells were treated with Nocodazole (Noc), 7d compounds at 2 μM concentration.

[42] = test system: CCRF-CEM; set-up: unit not given here; details: previous compounds (U.S. Pat. No. 7,384,966); cited from earlier work
[43] = test system: HL-60 (TB); set-up: unit not given here; details: previous compounds (U.S. Pat. No. 7,384,966); cited from earlier work
[44] = test system: K-562; set-up: unit not given here; details: previous compounds (U.S. Pat. No. 7,384,966); cited from earlier work
[45] = test system: MOLT-4; set-up: unit not given here; details: previous compounds (U.S. Pat. No. 7,384,966); cited from earlier work
[46] = test system: A549/ATCC; set-up: unit not given here; details: previous compounds (U.S. Pat. No. 7,384,966); cited from earlier work
[47] = test system: EKVX; set-up: unit not given here; details: previous compounds (U.S. Pat. No. 7,384,966); cited from earlier work
[48] = test system: HOP-62; set-up: unit not given here; details: previous compounds (U.S. Pat. No. 7,384,966); cited from earlier work
[49] = test system: NCI-H23; set-up: unit not given here; details: previous compounds (U.S. Pat. No. 7,384,966); cited from earlier work
[50] = test system: NCI-H522; set-up: unit not given here; details: previous compounds (U.S. Pat. No. 7,384,966); cited from earlier work
[51] = test system: SW-620; set-up: unit not given here; details: previous compounds (U.S. Pat. No. 7,384,966); cited from earlier work
[52] = test system: SF-268; set-up: unit not given here; details: previous compounds (U.S. Pat. No. 7,384,966); cited from earlier work
[53] = test system: SF-295; set-up: unit not given here; details: previous compounds (U.S. Pat. No. 7,384,966); cited from earlier work
[54] = test system: SF-539; set-up: unit not given here; details: previous compounds (U.S. Pat. No. 7,384,966); cited from earlier work
[55] = test system: SNB-19; set-up: unit not given here; details: previous compounds (U.S. Pat. No. 7,384,966); cited from earlier work
[56] = test system: SNB-75; set-up: unit not given here; details: previous compounds (U.S. Pat. No. 7,384,966); cited from earlier work
[57] = test system: U251; set-up: unit not given here; details: previous compounds (U.S. Pat. No. 7,384,966); cited from earlier work
[58] = test system: OVCAR-3; set-up: unit not given here; details: previous compounds (U.S. Pat. No. 7,384,966); cited from earlier work
[59] = test system: OVCAR-8; set-up: unit not given here; details: previous compounds (U.S. Pat. No. 7,384,966); cited from earlier work
[60] = test system: NCI/ADR-RES; set-up: unit not given here; details: listed as head printed RES (second line of NCI/ADR-RES); previous compounds (U.S. Pat. No. 7,384,966); cited from earlier work
[61] = test system: 786-0; set-up: unit not given here; details: previous compounds (U.S. Pat. No. 7,384,966); cited from earlier work
[62] = test system: ACHN; set-up: unit not given here; details: previous compounds (U.S. Pat. No. 7,384,966); cited from earlier work
[63] = test system: CAKI-1; set-up: unit not given here; details: previous compounds (U.S. Pat. No. 7,384,966); cited from earlier work
[64] = test system: SN12C; set-up: unit not given here; details: previous compounds (U.S. Pat. No. 7,384,966); cited from earlier work
[65] = test system: UO-31; set-up: unit not given here; details: previous compounds (U.S. Pat. No. 7,384,966); cited from earlier work
[66] = test system: PC-3; set-up: unit not given here; details: previous compounds (U.S. Pat. No. 7,384,966); cited from earlier work
[67] = test system: DU-145; set-up: unit not given here; details: previous compounds (U.S. Pat. No. 7,384,966); cited from earlier work
[68] = test system: MDA-MB-231/ATCC; set-up: unit not given here; details: previous compounds (U.S. Pat. No. 7,384,966); cited from earlier work
[69] = test system: HS 578T; set-up: unit not given here; details: previous compounds (U.S. Pat. No. 7,384,966); cited from earlier work
[70] = test system: BT-549; set-up: unit not given here; details: previous compounds (U.S. Pat. No. 7,384,966); cited from earlier work
[71] = test system: LOX IMVI; set-up: unit not given here; details: previous compounds (U.S. Pat. No. 7,384,966); cited from earlier work
[72] = test system: MALME-3M; set-up: unit not given here; details: previous compounds (U.S. Pat. No. 7,384,966); cited from earlier work
[73] = test system: M14; set-up: unit not given here; details: previous compounds (U.S. Pat. No. 7,384,966); cited from earlier work
[74] = test system: UACC-257; set-up: unit not given here; details: previous compounds (U.S. Pat. No. 7,384,966); cited from earlier work
[75] = test system: UACC-62; set-up: unit not given here; details: previous compounds (U.S. Pat. No. 7,384,966); cited from earlier work

Cc1cc(-c2nc3ccccc3s2)ccc1N [Compound 3a, reference compound]
GI50 [1]: 6.45 µM | GI50 [2]: 8.71 µM | GI50 [3]: 6.02 µM | GI50 [4]: 19.5 µM | GI50 [5]: 17.4 µM | GI50 [6]: 28.8 µM | GI50 [7]: 34.7 µM | GI50 [8]: 0.35 µM | GI50 [9]: 58.9 µM | GI50 [10]: 43.7 µM | GI50 [11]: 53.7 µM | GI50 [12]: 32.4 µM | GI50 [13]: 51.3 µM | GI50 [14]: 0.25 µM | GI50 [15]: 43.7 µM | GI50 [16]: 47.9 µM | GI50 [17]: 29.5 µM | GI50 [18]: 64.6 µM | GI50 [19]: 33.1 µM | GI50 [20]: 66.1 µM | GI50 [21]: 0.042 µM | GI50 [22]: 0.54 µM | GI50 [23]: 42.7 µM | GI50 [24]: 51.3 µM | GI50 [25]: 50.1 µM | GI50 [26]: 0.18 µM | GI50 [27]: 6.45 µM | GI50 [28]: 70.6 µM | GI50 [29]: 31.6 µM | GI50 [30]: 61.7 µM | GI50 [31]: 0.03 µM | GI50 [32]: 66.1 µM | GI50 [33]: 66.1 µM | GI50 [34]: 0.1 µM | GI50 [35]: 37.2 µM | GI50 [36]: 57.6 µM | GI50 [37]: 79.5 µM | GI50 [38]: 21.9 µM | GI50 [39]: 74.2 µM | GI50 [40]: 70.8 µM

COC(=O)Nc1nc2ccc(C(=O)c3cccs3)cc2[nH]1 [Nocodazole, reference compound]
microtubulin organization [41]: disrupted microtubulin organization

COc1ccc(-c2nc3ccc(F)cc3s2)cc1OC [Compound 3d]
Log10GI50 [42]: >−4.0 | Log10GI50 [43]: >−4.0 | Log10GI50 [44]: >−4.0 | Log10GI50 [45]: >−4.0 | Log10GI50 [46]: >−4.0 | Log10GI50 [47]: >−4.0 | Log10GI50 [48]: >−4.0 | Log10GI50 [49]: >−4.0 | Log10GI50 [50]: >−4.0 | Log10GI50 [51]: >−4.0 | Log10GI50 [52]: >−4.0 | Log10GI50 [53]: >−4.0 | Log10GI50 [54]: >−4.0 | Log10GI50 [55]: >−4.0 | Log10GI50 [56]: >−4.0 | Log10GI50 [57]: >−4.0 | Log10GI50 [58]: >−4.0 | Log10GI50 [59]: >−4.0 | Log10GI50 [60]: >−4.0 | Log10GI50 [61]: >−4.0 | Log10GI50 [62]: >−4.0 | Log10GI50 [63]: >−4.0 | Log10GI50 [64]: >−4.0 | Log10GI50 [65]: >−4.0 | Log10GI50 [66]: >−4.0 | Log10GI50 [67]: >−4.0 | Log10GI50 [68]: >−4.0 | Log10GI50 [69]: >−4.0 | Log10GI50 [70]: >−4.0 | Log10GI50 [71]: >−4.0 | Log10GI50 [72]: >−4.0 | Log10GI50 [73]: >−4.0 | Log10GI50 [74]: >−4.0 | Log10GI50 [75]: >−4.0
